According to ChEMBL document CHEMBL3045468, “I2 catalyzed FriedelCrafts alkylation reaction of substituted anilines with ninhydrin: formation of novel products and their antimicrobial evaluation” (2013):
In brackets after ≈: the same amount, converted by molar mass. Activity calls are given as the source filed them. No cut-off for these calls is given here.

Assays:
[1] = test system: Cryptococcus neoformans; experiment: Antifungal activity against Cryptococcus neoformans clinical isolate assessed as growth inhibition after 96 hr by agar dilution method; format: functional
[2] = test system: Candida tropicalis; experiment: Antifungal activity against Candida tropicalis clinical isolate assessed as growth inhibition after 96 hr by agar dilution method; format: functional
[3] = test system: Candida albicans; experiment: Antifungal activity against Candida albicans clinical isolate assessed as growth inhibition after 96 hr by agar dilution method; format: functional
[4] = test system: Aspergillus niger; experiment: Antifungal activity against Aspergillus niger clinical isolate assessed as growth inhibition after 96 hr by agar dilution method; format: functional
[5] = test system: Pseudomonas aeruginosa; experiment: Antibacterial activity against Pseudomonas aeruginosa 71 clinical isolate assessed as growth inhibition at 1 mg/ml after 24 hr by NCCLS agar diffusion method; format: functional
[6] = test system: Bacillus pumilus; experiment: Antibacterial activity against Bacillus pumilus 11778 clinical isolate assessed as growth inhibition at 1 mg/ml after 24 hr by NCCLS agar diffusion method; format: functional; conditions: for zone of inhibition at 1000 µg/mL: Bacillus pumilus, 11778, 24 h, read-out: DIZ
[7] = test system: Escherichia coli; experiment: Antibacterial activity against Escherichia coli 319 clinical isolate assessed as growth inhibition at 1 mg/ml after 24 hr by NCCLS agar diffusion method; format: functional; conditions: for zone of inhibition at 1000 µg/mL: Escherichia coli, 319, 24 h, read-out: DIZ
[8] = test system: Micrococcus luteus; experiment: Antibacterial activity against Micrococcus luteus ATCC 9341 clinical isolate assessed as growth inhibition at 1 mg/ml after 24 hr by NCCLS agar diffusion method; format: functional; conditions: for zone of inhibition at 1000 µg/mL: ATCC 9341, 24 h, read-out: DIZ
[9] = test system: Shigella dysenteriae; experiment: Antibacterial activity against Shigella dysenteriae 15 clinical isolate assessed as growth inhibition at 1 mg/ml after 24 hr by NCCLS agar diffusion method; format: functional; conditions: for zone of inhibition at 1000 µg/mL: Shigella dysenteriae, 15, 24 h, read-out: DIZ
[10] = test system: Staphylococcus aureus; experiment: Antibacterial activity against Staphylococcus aureus 29737 clinical isolate assessed as growth inhibition at 1 mg/ml after 24 hr by NCCLS agar diffusion method; format: functional; conditions: for zone of inhibition at 1000 µg/mL: Staphylococcus aureus, 29737, 24 h, read-out: DIZ
[11] = test system: Klebsiella pneumoniae; experiment: Antibacterial activity against Klebsiella pneumoniae J/I/4 clinical isolate assessed as growth inhibition at 1 mg/ml after 24 hr by NCCLS agar diffusion method; format: functional; conditions: for zone of inhibition at 1000 µg/mL: J/I/4, 24 h, read-out: DIZ
[12] = test system: Vibrio cholerae; experiment: Antibacterial activity against Vibrio cholerae 759 clinical isolate assessed as growth inhibition at 1 mg/ml after 24 hr by NCCLS agar diffusion method; format: functional; conditions: for zone of inhibition at 1000 µg/mL: Vibrio cholerae, 759, 24 h, read-out: DIZ
[13] = test system: Candida tropicalis; experiment: Antifungal activity against Candida tropicalis clinical isolate assessed as growth inhibition at 1 mg/ml after 96 hr by NCCLS agar diffusion method; format: functional; conditions: read-out: DIZ
[14] = test system: Candida albicans; experiment: Antifungal activity against Candida albicans clinical isolate assessed as growth inhibition at 1 mg/ml after 96 hr by NCCLS agar diffusion method; format: functional; conditions: read-out: DIZ
[15] = test system: Aspergillus niger; experiment: Antifungal activity against Aspergillus niger clinical isolate assessed as growth inhibition at 1 mg/ml after 96 hr by NCCLS agar diffusion method; format: functional; conditions: read-out: DIZ
[16] = test system: Vibrio cholerae; experiment: Antibacterial activity against Vibrio cholerae 759 clinical isolate assessed as growth inhibition after 24 hr by agar dilution method; format: functional; conditions: Vibrio cholerae, 759, 24 h
[17] = test system: Vibrio cholerae; experiment: Bactericidal activity against Vibrio cholerae 759 clinical isolate assessed as reduction of viable CFU count at MIC measured up to 48 hr relative to untreated control; format: functional, organism-based
[18] = test system: Escherichia coli; experiment: Bactericidal activity against Escherichia coli 319 clinical isolate assessed as reduction of viable CFU count at MIC measured up to 48 hr relative to untreated control; format: functional, organism-based
[19] = test system: Cryptococcus neoformans; experiment: Antifungal activity against Cryptococcus neoformans clinical isolate assessed as growth inhibition at 1 mg/ml after 96 hr by NCCLS agar diffusion method; format: functional; conditions: read-out: DIZ
[20] = test system: Shigella dysenteriae; experiment: Antibacterial activity against Shigella dysenteriae 15 clinical isolate assessed as growth inhibition after 24 hr by agar dilution method; format: functional; conditions: Shigella dysenteriae, 15, 24 h

Compound	MIC [2] [µg/mL]	MIC [3] [µg/mL]	MIC [4] [µg/mL]	growth inhibition (GI) [5]	zone of inhibition at 1000 µg/mL [6] [mm]	zone of inhibition at 1000 µg/mL [7] [mm]	growth inhibition (GI) [8]	zone of inhibition at 1000 µg/mL [9] [mm]	growth inhibition (GI) [10]	growth inhibition (GI) [11]	growth inhibition (GI) [12]	growth inhibition (GI) [6]	growth inhibition (GI) [9]	zone of inhibition at 1000 µg/mL [11] [mm]	growth inhibition (GI) [7]	zone of inhibition at 1000 µg/mL [8] [mm]	zone of inhibition at 1000 µg/mL [10] [mm]	further results
OC(Cn1cncn1)(Cn1cncn1)c1ccc(F)cc1F [FLUCONAZOLE]	8 (≈ 0.0261 mM)	4 (≈ 0.0131 mM)	10 (≈ 0.0327 mM)															MIC [1]: 8 µg/mL (≈ 0.0261 mM)
CCN(CC)c1ccc(C2(O)C(=O)c3ccccc3C2=O)cc1				inactive	7	9	inactive	7	inactive	inactive	inactive							
Nc1ccc(C2(O)C(=O)c3ccccc3C2=O)c2ncccc12				inactive		8	inactive		inactive	inactive	inactive	inactive	inactive					
Nc1ccc(C2(c3ccc(N)cc3)C(=O)c3ccccc3C2=O)cc1	1000 (≈ 3.05 mM)	1000 (≈ 3.05 mM)	1000 (≈ 3.05 mM)	inactive	8	6	inactive	7	inactive		inactive			7				zone of inhibition at 1000 µg/mL [13]: 8.2 mm; zone of inhibition at 1000 µg/mL [14]: 9 mm; zone of inhibition at 1000 µg/mL [15]: 10 mm
COc1cc(C2(Nc3cc(Cl)ccc3OC)C(=O)c3ccccc3C2=O)c(Cl)cc1N				inactive					inactive	inactive		inactive	inactive		inactive	9		MIC [16]: 32000 µg/mL (≈ 70 mM); Activity [17]: Active; Activity [18]: Active; zone of inhibition at 1000 µg/mL [12]: 8 mm
COc1cc(N)ccc1C1(O)C(=O)c2ccccc2C1=O				inactive						inactive	inactive	inactive	inactive		inactive	8	7	
Nc1ccc(C2(c3ccc(N)c(Br)c3)C(=O)c3ccccc3C2=O)cc1Br	2000 (≈ 4.11 mM)	2500 (≈ 5.14 mM)	1000 (≈ 2.06 mM)	inactive	8	8	inactive		inactive				inactive	6				zone of inhibition at 1000 µg/mL [19]: 8 mm; zone of inhibition at 1000 µg/mL [13]: 8 mm; zone of inhibition at 1000 µg/mL [14]: 10 mm; zone of inhibition at 1000 µg/mL [15]: 12 mm; MIC [1]: 1500 µg/mL (≈ 3.09 mM); zone of inhibition at 1000 µg/mL [12]: 9 mm
Nc1ccc(C2(c3ccc(N)c(Cl)c3)C(=O)c3ccccc3C2=O)cc1Cl				inactive		8	inactive	6	inactive		inactive	inactive		8				MIC [20]: 32000 µg/mL (≈ 80.6 mM)
CN(C)c1ccc(C2(O)C(=O)c3ccccc3C2=O)cc1				inactive		7	inactive			inactive	inactive	inactive	inactive				7	
Nc1ccc(C2(c3ccc(N)c(I)c3)C(=O)c3ccccc3C2=O)cc1I										inactive	inactive	inactive	inactive		inactive	8	8	zone of inhibition at 1000 µg/mL ([5]; Pseudomonas aeruginosa, 71, 24 h, read-out: DIZ): 8 mm
